From ChEMBL document CHEMBL1145583, “2,5-Diaminopyrimidines and 3,5-disubstituted azapurines as inhibitors of glycogen synthase kinase-3 (GSK-3)” (Bioorg Med Chem Lett, 2008) come the findings set out here.

The target in one data set is T1, Aurora kinase A (Homo sapiens, UniProt O14965).
T1 sequence (O14965 whole entry): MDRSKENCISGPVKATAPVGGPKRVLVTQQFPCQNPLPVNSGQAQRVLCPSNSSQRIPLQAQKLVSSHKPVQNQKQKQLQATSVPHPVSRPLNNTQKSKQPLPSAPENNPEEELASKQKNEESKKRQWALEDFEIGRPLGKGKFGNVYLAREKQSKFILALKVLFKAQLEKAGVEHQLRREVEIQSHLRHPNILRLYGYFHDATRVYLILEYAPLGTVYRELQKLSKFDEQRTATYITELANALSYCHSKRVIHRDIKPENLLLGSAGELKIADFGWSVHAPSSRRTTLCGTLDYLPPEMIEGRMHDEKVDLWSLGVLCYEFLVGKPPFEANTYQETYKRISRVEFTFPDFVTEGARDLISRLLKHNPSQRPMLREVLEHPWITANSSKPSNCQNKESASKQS
The experiment in a line: Inhibition of Aurora A.

Data set [1] addresses T2, Glycogen synthase kinase-3 beta (Homo sapiens, UniProt P49841). The data set is described as follows: Inhibition of GSK3-beta.
Target sequence in this assay (P49841 whole entry): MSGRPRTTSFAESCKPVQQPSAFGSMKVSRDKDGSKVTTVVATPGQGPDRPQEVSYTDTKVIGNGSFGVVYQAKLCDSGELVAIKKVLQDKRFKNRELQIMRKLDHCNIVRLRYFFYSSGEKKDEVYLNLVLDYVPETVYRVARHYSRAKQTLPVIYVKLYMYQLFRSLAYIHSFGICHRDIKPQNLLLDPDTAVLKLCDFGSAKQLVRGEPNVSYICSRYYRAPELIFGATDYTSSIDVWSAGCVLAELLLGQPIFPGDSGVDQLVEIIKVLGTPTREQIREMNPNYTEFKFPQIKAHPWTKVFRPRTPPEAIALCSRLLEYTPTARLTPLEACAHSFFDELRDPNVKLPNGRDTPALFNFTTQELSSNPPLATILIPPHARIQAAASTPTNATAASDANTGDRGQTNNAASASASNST
Data set [2] deals with T3, Glycogen synthase kinase-3 alpha (Homo sapiens, UniProt P49840). The data set is described as follows: Inhibition of GSK3alpha.
Target sequence in this assay (P49840 whole entry): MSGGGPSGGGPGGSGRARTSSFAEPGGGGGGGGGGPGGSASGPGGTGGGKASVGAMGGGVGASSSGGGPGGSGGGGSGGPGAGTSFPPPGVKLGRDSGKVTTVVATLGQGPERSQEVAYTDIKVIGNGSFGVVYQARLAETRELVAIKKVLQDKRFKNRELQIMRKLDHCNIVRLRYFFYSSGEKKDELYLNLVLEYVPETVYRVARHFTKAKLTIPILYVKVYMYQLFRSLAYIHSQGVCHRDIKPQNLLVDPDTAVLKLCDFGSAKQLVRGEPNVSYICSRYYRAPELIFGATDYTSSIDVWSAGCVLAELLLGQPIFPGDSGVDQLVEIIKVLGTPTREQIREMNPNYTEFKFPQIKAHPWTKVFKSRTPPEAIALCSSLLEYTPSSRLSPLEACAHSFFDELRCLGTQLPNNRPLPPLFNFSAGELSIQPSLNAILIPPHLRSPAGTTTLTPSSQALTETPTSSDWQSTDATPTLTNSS
Data set [3] has as its target T4, Aurora kinase A (Homo sapiens) (UniProt O14965).
T4 sequence (whole entry): T1 sequence (O14965 whole entry)
The data set is described as follows: Inhibition of Aurora A at 10 uM.

Data set [4] is described as follows: Clearance in rat at 5 mg/kg, iv. Type of data set: ADME, organism-based. Further details: dose 5 mg/kg, route intravenous. As to conditions: in vivo.
Data set [5] is described as follows: AUC in rat at 20 mg/kg, po. Type of data set: ADME, organism-based. Set-up: dose 20 mg/kg, route oral. The note with it: plasma.
Data set [6] in a line: Cmax in rat at 20 mg/kg, po. Type of data set: ADME, organism-based. Further details: dose 20 mg/kg, route oral. The note with it: in vivo.
A short description of data set [7]: AUC in rat at 5 mg/kg, iv. Type of data set: ADME, organism-based. As to conditions: plasma. Further details: dose 5 mg/kg, route intravenous.
Data set [8] can be described thus: Half life in rat at 5 mg/kg, iv. The format is ADME, organism-based. Set-up: dose 5 mg/kg, route intravenous. The note with it: in vivo.
A short description of data set [9]: Volume of distribution at steady state in rat at 5 mg/kg, iv. Type of data set: ADME, organism-based. Set-up: dose 5 mg/kg, route intravenous. As to conditions: in vivo, read-out: Vdss.
Data set [10] can be described thus: Cmax in rat at 5 mg/kg, iv. Type of data set: ADME, organism-based. The note with it: in vivo. Further details: dose 5 mg/kg, route intravenous.
Data set [11] in a line: Tmax in rat at 20 mg/kg, po. The format is ADME, organism-based. Set-up: dose 20 mg/kg, route oral. The note with it: in vivo.
The nature of data set [12]: Oral bioavailability in rat at 20 mg/kg. Type of data set: ADME, organism-based. The note with it: in vivo.
The nature of data set [13]: Half life in rat at 20 mg/kg, po. The format is ADME, organism-based. Further details: dose 20 mg/kg, route oral. As to conditions: in vivo.
Data set [14] addresses T2, Glycogen synthase kinase-3 beta. The experiment in a line: Inhibition of GSK3-beta at 10 uM.
Target sequence in this assay (P49841 whole entry, looked up): as the sequence (P49841 whole entry) above
Data set [15] addresses T3, Glycogen synthase kinase-3 alpha. The data set is described as follows: Inhibition of GSK3-alpha at 10 uM.
Target sequence in this assay (P49840 2-483 limits assumed): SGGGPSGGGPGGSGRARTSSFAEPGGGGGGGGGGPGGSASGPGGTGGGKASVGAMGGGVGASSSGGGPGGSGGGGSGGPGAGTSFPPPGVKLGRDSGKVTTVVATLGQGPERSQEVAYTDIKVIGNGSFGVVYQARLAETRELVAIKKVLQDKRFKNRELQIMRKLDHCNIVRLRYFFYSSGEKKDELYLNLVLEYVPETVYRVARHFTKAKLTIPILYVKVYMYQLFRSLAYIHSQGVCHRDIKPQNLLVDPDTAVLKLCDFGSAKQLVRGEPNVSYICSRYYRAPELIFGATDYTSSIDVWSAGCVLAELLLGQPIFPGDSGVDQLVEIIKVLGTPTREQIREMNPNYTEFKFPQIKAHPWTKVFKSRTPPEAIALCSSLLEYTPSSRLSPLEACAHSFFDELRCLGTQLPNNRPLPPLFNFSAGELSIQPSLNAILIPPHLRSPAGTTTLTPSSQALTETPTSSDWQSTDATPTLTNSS

For orientation: IC50 means the point on the concentration scale where inhibition reaches its midpoint. Low readings indicate greater potency, high ones weaker potency. By inhibition is commonly meant the relative decrease from the control value, in per cent. As a reminder, the clearance is the volume of plasma or blood freed of the substance per unit of time. Read a high clearance as a high capacity for elimination. For orientation: AUC means concentration integrated over time. Read a high AUC as more exposure. By Cmax is commonly meant the maximum level reached in the sampled fluid or tissue. A word on the half-life: it is the time in which the quantity being followed falls by half. A high value points to slow decline. By Tmax is commonly meant the time from dosing to the highest level. The bioavailability is the share of a dose that reaches the circulation, judged against a reference dose that is usually intravenous. Low readings indicate little systemic uptake, high ones much systemic uptake.

`O=C(O)c1ccc(Nc2ncc([N+](=O)[O-])c(Nc3ccccc3)n2)cc1`: the values for the half-inhibitory concentration (IC50) (on Aurora kinase A; in [1]; in [2]) were 346 nM, 150 nM and 270 nM, respectively.
For the molecule `OC12CC3CC(C1)CC(n1nnc4cnc(N[C@H]5CC[C@H](O)CC5)nc41)(C3)C2`, the IC50 was determined as 744 nM in data set [1] and 444 nM in [2]. Also, the inhibition in data set [3] turned out to be 23%.
As for `O=C(O)c1ccc(Nc2ncc3nnn(-c4ccccc4)c3n2)cc1`, the results for the concentration for half-maximal inhibition (IC50) (against Aurora kinase A; in [1]; in data set [2]) were 292 nM, 49 nM and 32 nM, respectively.
On to `O=[N+]([O-])c1cnc(N[C@H]2CC[C@H](O)CC2)nc1Nc1ccccc1`, for which the 50% inhibitory concentration (IC50) was 281 nM in data set [1] and 172 nM in [2].
For the molecule `OC12CC3CC(C1)CC(Nc1nc(N[C@H]4CC[C@H](O)CC4)ncc1F)(C3)C2`, half-maximal inhibition in data set [2] (IC50) was put at 1500 nM.
Turning to `O=C(O)COc1ccc(Nc2ncc([N+](=O)[O-])c(Nc3ccccc3)n2)cc1`, the half-maximal inhibitory concentration (IC50) against Aurora kinase A worked out at 85 nM; in data set [1], 92 nM; in [2], 74 nM.
`O=C(O)COc1ccc(Nc2ncc3nnn(C45CC6CC(CC(O)(C6)C4)C5)c3n2)cc1`: the IC50 was found to be 169 nM in data set [1] and 96 nM in data set [2].
`OC12CC3CC(C1)CC(Nc1nc(N[C@H]4CC[C@H](O)CC4)ncc1C(F)(F)F)(C3)C2` came in with a clearance in data set [4] of 4.2 mL/min/kg. The exposure (AUC) is 27400 ng·h/mL in data set [5] and 20100 ng·h/mL in [7]. Also, the IC50 came to 41 nM in data set [1] and 61 nM in data set [2]. In addition, the highest concentration (Cmax) in [6] worked out at 5700 ng/mL; in data set [10], 24200 ng/mL. The half-life in data set [8] is 3.7 h; in data set [13], 6.1 h. Further, the inhibition in [3] is 45%. In addition, the Vd in data set [9] is 0.3 L/kg. Also, in data set [11], the Tmax turned out to be 0.5 h. For the same molecule, the bioavailability in data set [12] is 34%.
Regarding `O=C(O)c1ccc(Nc2ncc([N+](=O)[O-])c(NC34CC5CC(CC(O)(C5)C3)C4)n2)cc1`, the IC50 turned out to be 156 nM against Aurora kinase A, 3 nM in data set [1] and 4.5 nM in data set [2].
As for `O=C(O)c1ccc(Nc2ncc3c(Cl)nn(-c4ccccc4)c3n2)cc1`, the figures for the 50% inhibitory concentration (IC50) in data set [1] and in [2] were 180 nM and 350 nM, respectively.
As for `O[C@H]1CC[C@H](Nc2ncc3nnn(-c4ccccc4)c3n2)CC1`, the IC50 is 279 nM in [1] and 123 nM in data set [2]. Also, in [3], the inhibition came out at 25%.
`O=C(O)c1ccc(Nc2ncc3nnn(C45CC6CC(CC(C6)C4)C5)c3n2)cc1`: the IC50 against Aurora kinase A is 910 nM; in data set [1], 75 nM; in data set [2] it was 80 nM.
For `O=C1OC(Nc2ncc3nnn(-c4ccccc4)c3n2)c2ccccc21` (stereo not drawn) the same measures were 7300 nM, 23 nM and 23 nM.
Consider `OC12CC3CC(C1)CC(Nc1nc(N[C@H]4CC[C@H](O)CC4)ncc1Cl)(C3)C2`, for which the 50% inhibitory concentration (IC50) in data set [1] was 230 nM; in [2], 133 nM. Also, the inhibition in data set [3] was found to be 65%.
Take `O=C(O)/C=C\c1ccc(Nc2ncc3nnn(-c4ccccc4)c3n2)cc1`: the IC50 against Aurora kinase A stood at 112 nM; in [1], 7 nM; in data set [2], 13 nM.
Take `CCCCOC(=O)c1ccc(Nc2ncc3[nH]c(=O)n(-c4ccccc4)c3n2)cc1`: the inhibition in [14] is -5%; in [15] it was 6%.
As for `CCn1c(=O)n(-c2ccccc2)c2nc(Nc3ccccc3)ncc21`, the inhibition in data set [14] was determined as 78%; in [15], 73%. This molecule displayed an IC50 in data set [1] of more than 10000 nM.
In the case of `CC(C)n1c(=O)n(-c2ccccc2)c2nc(Nc3ccccc3)ncc21`, the inhibition in data set [14] worked out at 71%. In data set [1], this molecule showed an IC50 of 2900 nM.
Consider `Cn1c(=O)c2cnc(Nc3ccc(C(=O)O)cc3)nc2n1-c1ccccc1`, for which the concentration for half-maximal inhibition (IC50) in [1] was 960 nM; in [2], 1020 nM.
Turning to `COc1nn(-c2ccccc2)c2nc(Nc3ccc(C(=O)O)cc3)ncc12`, the IC50 amounted to 760 nM in data set [1] and 1900 nM in data set [2].
On to `OC12CC3CC(C1)CC(Nc1nc(N[C@H]4CC[C@H](O)CC4)ncc1Br)(C3)C2`, for which the half-maximal inhibitory concentration (IC50) in data set [1] amounted to 125 nM; in data set [2] it was 91 nM. For the same molecule, the inhibition in data set [3] is 69%.
As for `O=C(O)c1ccc(Nc2ncc(-c3ccncc3)c(Nc3ccccc3)n2)cc1`, the half-maximal inhibitory concentration (IC50) in data set [1] was found to be 540 nM; in [2], 1870 nM.
With `COC(=O)COc1ccc(Nc2ncc3nnn(-c4ccccc4)c3n2)cc1`, the 50% inhibitory concentration (IC50) in data set [1] was 477 nM; in data set [2], 204 nM.
Turning to `O=C(O)c1ccc(Nc2ncc(C(F)(F)F)c(Nc3ccccc3)n2)cc1`, the IC50 is 490 nM in [1] and 750 nM in data set [2].
In the case of `O=C(O)c1cccc(Nc2ncc3[nH]c(=O)n(-c4ccccc4)c3n2)c1`, the inhibition was found to be 3% in [14] and 1% in data set [15].
For `O=C(O)CCc1ccc(Nc2ncc([N+](=O)[O-])c(NC34CC5CC(CC(C5)C3)C4)n2)cc1`, the figures for the IC50 in [1] and in [2] were 105 nM and 38 nM, respectively.
Turning to `O=C(O)COc1ccc(Nc2ncc3nnn(-c4ccccc4)c3n2)cc1`, the 50% inhibitory concentration (IC50) amounted to 128 nM against Aurora kinase A, 13 nM in data set [1] and 9 nM in [2].
Turning to `O=C(O)c1ccc(Nc2ncc(Br)c(Nc3ccccc3)n2)cc1`, the half-inhibitory concentration (IC50) in data set [1] worked out at 3200 nM. Besides, the inhibition in data set [15] amounted to 82%.
`O=c1n(-c2ccccc2)c2nc(Nc3ccccc3)ncc2n1C1CCCCC1`: the inhibition in data set [14] is 14%; in [15], 16%.
As to `COC(=O)COc1ccc(Nc2ncc([N+](=O)[O-])c(Nc3ccccc3)n2)cc1`, in [14], the inhibition came out at 41%.
With `Cn1c(=O)n(-c2ccccc2)c2nc(Nc3ccccc3)ncc21`, the results for the inhibition in [14] and in data set [15] were 96% and 94%, respectively. In addition, it took 1700 nM to reach half-maximal inhibition in [1] (IC50).
Molecule `O=[N+]([O-])c1cnc(Nc2ccccc2)nc1Nc1ccccc1` returned an IC50 in data set [1] of 2800 nM. For the same molecule, the inhibition in [15] was found to be 52%.
Turning to `O=C(O)c1ccc(Nc2ncc3nnn(C45CC6CC(CC(O)(C6)C4)C5)c3n2)cc1`, the IC50 in data set [1] was determined as 51 nM; in [2], 66 nM.
As to `O=[N+]([O-])c1cnc(N[C@H]2CC[C@H](O)CC2)nc1NC12CC3CC(CC(O)(C3)C1)C2`, the IC50 in [1] stood at 198 nM; in [2], 123 nM. Further, in data set [3], the inhibition was 33%.
For `O=C(O)CCc1ccc(Nc2ncc3nnn(-c4ccccc4)c3n2)cc1`, the IC50 is 375 nM against Aurora kinase A, 24 nM in [1] and 20 nM in data set [2].
In the case of `O=C(O)c1ccc(Nc2ncc(C3C=NN=N3)c(Nc3ccccc3)n2)cc1` (stereo not drawn), the IC50 in data set [1] was 1170 nM; in [2], 2850 nM.
`O=c1[nH]c2cnc(Nc3ccccc3)nc2n1-c1ccccc1`: the inhibition in [14] is 20%; in [15], -7%.
Take `O=C(O)c1ccc(Nc2ncc([N+](=O)[O-])c(NC34CC5CC(CC(C5)C3)C4)n2)cc1`: the half-inhibitory concentration (IC50) in data set [1] came to 26 nM; in data set [2] it was 34 nM.
As for `c1ccc(Nc2ncc3nnn(-c4ccccc4)c3n2)cc1`, the values for the IC50 in [1] and in data set [2] were 628 nM and 330 nM, respectively.
For `O=C(O)c1ccc(Nc2ncc(F)c(Nc3ccccc3)n2)cc1`, in that order: 4170 nM and 3760 nM.
Turning to `O=C(O)c1ccc(Nc2ncc3[nH]c(=O)n(-c4ccccc4)c3n2)cc1`, the inhibition in data set [14] was 88%; in data set [15], 93%. Further, the IC50 in [1] is 4000 nM.
In the case of `O=C1CN(c2ccccc2)c2nc(Nc3ccc(C(=O)O)cc3)ncc2N1`, the results for the concentration for half-maximal inhibition (IC50) in data set [1] and in data set [2] were 3500 nM and 6700 nM, respectively.
Take `CC(C)(C)n1c(=O)n(-c2ccccc2)c2nc(Nc3ccccc3)ncc21`: the inhibition in [14] is 93%; in [15] it was 88%. In data set [1], this molecule returned an IC50 of 2400 nM.
